Measurements reported in US11337976B2 (Plexxikon Inc., priority 2011, dated 2022).

The molecules below were run on A375 melanoma cells (B-Raf V600E mutation) (assay: A375 (A375_P-ERK) cell activity / cell growth inhibition assay). Settings: Homo sapiens, A-375; A375 cells (text: A375_P-ERK).
Format: cell-based, human
Method: Compounds are assessed in a variety of cell based assays. For example human cell lines with B-RafV600E mutation (A375 melanoma, SKMEL3 melanoma, and COLO205 colon adenocarcinoma), as well as tumorigenic cell lines with wild-type B-RAF (SW620 colon adenocarcinoma) or with Ras mutations (SKMEL2 melanoma and IPC298 melanoma).
On day 1, cells are counted, then centrifuged in a conical tube for 5 minutes at 1000 rpm.
On day 2, compound at a maximum concentration of 5 mM is serially diluted 1:3 (e.g. 10 μL with 30 μL dimethyl sulfoxide) for a total of 8 point titration with DMSO as a control. A 1 μL aliquot of each dilution point and control is added to 249 μL growth media and 50 μL is added to a well containing cells, providing 10 μM compound at the maximum concentration point. The cells are incubated for 3 days at 37° C. in 5% CO2.
ATPlite is added 25 μL to each well, shake for 2 minutes, and the cells are incubated at room temperature for 10 minutes, then luminescence is read on Safire reader. The measured luminescence correlates directly with cell number, such that the reading as a function of compound concentration is used to determine the IC50 value.

Row | IC50 [µM] | Structure (SMILES)
1 | < 1 | CCN(C)S(=O)(=O)Nc1cccc(C(=O)c2c[nH]c3ncc(-c4cnc(C(C)C)nc4)cc23)c1F [P-0057, 3-[3-[[ethyl(methyl)sulfamoyl]amino]-2-fluoro-benzoyl]-5-(2-isopropylpyrimidin-5-yl)-1H-pyrrolo[2,3-b]pyridine]
2 | < 1 | CCN(C)S(=O)(=O)Nc1cccc(C(=O)c2c[nH]c3ncc(-c4cnc(C5CC5)nc4)cc23)c1F [P-0058]
3 | < 1 | CCN(C)S(=O)(=O)Nc1cccc(C(=O)c2c[nH]c3ncc(-c4ccc(C(F)(F)F)nc4)cc23)c1F [P-0059, 3-[3-[[ethyl(methyl)sulfamoyl]amino]-2-fluoro-benzoyl]-5-[6-(trifluoromethyl)-3-pyridyl]-1H-pyrrolo[2,3-b]pyridine]
4 | < 1 | CCN(C)S(=O)(=O)Nc1cccc(C(=O)c2c[nH]c3ncc(-c4ccc(C#N)c(OC)c4)cc23)c1F [P-0060, 5-(4-cyano-3-methoxy-phenyl)-3-[3-[[ethyl(methyl)sulfamoyl]amino]-2-fluoro-benzoyl]-1H-pyrrolo[2,3-b]pyridine]
5 | < 1 | O=C(c1cccc(NS(=O)(=O)N2CCCC2)c1F)c1c[nH]c2ncc(-c3ccc(F)cc3)cc12 [P-0062, N-[2-fluoro-3-[5-(4-fluorophenyl)-1H-pyrrolo[2,3-b]pyridine-3-carbonyl]phenyl]pyrrolidine-1-sulfonamide]
6 | < 1 | O=C(c1cccc(NS(=O)(=O)N2CCCC2)c1F)c1c[nH]c2ncc(-c3ccccc3)cc12 [P-0063, N-[2-fluoro-3-(5-phenyl-1H-pyrrolo[2,3-b]pyridine-3-carbonyl)phenyl]pyrrolidine-1-sulfonamide]
7 | < 1 | CN(C)S(=O)(=O)Nc1cccc(C(=O)c2c[nH]c3ncc(-c4cnc(NC5CC5)nc4)cc23)c1F [P-0064, 5-[2-(cyclopropylamino)pyrimidin-5-yl]-3-[3-(dimethylsulfamoylamino)-2-fluoro-benzoyl]-1H-pyrrolo[2,3-b]pyridine]
8 | < 1 | COCCS(=O)(=O)Nc1cccc(C(=O)c2c[nH]c3ncc(-c4cnc(OC)nc4)cc23)c1F [P-0065, N-[2-fluoro-3-[5-(2-methoxypyrimidin-5-yl)-1H-pyrrolo[2,3-b]pyridine-3-carbonyl]phenyl]-2-methoxy-ethane sulfonamide]
9 | < 1 | CC(C)CN(C)S(=O)(=O)Nc1cccc(C(=O)c2c[nH]c3ncc(I)cc23)c1F [P-0070, 3-[2-fluoro-3-[[isobutyl(methyl)sulfamoyl]amino]benzoyl]-5-iodo-1H-pyrrolo[2,3-b]pyridine]
10 | < 1 | CC(C)NS(=O)(=O)Nc1cccc(C(=O)c2c[nH]c3ncc(I)cc23)c1F [P-0071, [2-fluoro-3-(isopropylsulfamoylamino)phenyl]-(5-iodo-1H-pyrrolo[2,3-b]pyridin-3-yl)methanone]
11 | < 1 | COc1ncc(-c2cnc3[nH]cc(C(=O)c4cccc(NS(=O)(=O)N(C)CC(C)C)c4F)c3c2)cn1 [P-0072, 3-[2-fluoro-3-[[isobutyl(methyl)sulfamoyl]amino]benzoyl]-5-(2-methoxypyrimidin-5-yl)-1H-pyrrolo[2,3-b]pyridine]
12 | < 1 | COCCN(C)S(=O)(=O)Nc1cccc(C(=O)c2c[nH]c3ncc(-c4cnc(OC)nc4)cc23)c1F [P-0073, 3-[2-fluoro-3-[[2-methoxyethyl(methyl)sulfamoyl]amino]benzoyl]-5-(2-methoxypyrimidin-5-yl)-1H-pyrrolo[2,3-b]pyridine]
13 | < 1 | COc1ncc(-c2cnc3[nH]cc(C(=O)c4cccc(NS(=O)(=O)N5CCCC5C)c4F)c3c2)cn1 (stereo not shown) [P-0074, N-[2-fluoro-3-[5-(2-methoxypyrimidin-5-yl)-1H-pyrrolo[2,3-b]pyridine-3-carbonyl]phenyl]-2-methyl-pyrrolidine-1-sulfonamide]
14 | < 1 | CCN(C)S(=O)(=O)Nc1cccc(C(=O)c2c[nH]c3ncc(-c4ccc(N(C)C)nc4)cc23)c1F [P-0076, 5-[6-(dimethylamino)-3-pyridyl]-3-[3-[[ethyl(methyl)sulfamoyl]amino]-2-fluoro-benzoyl]-1H-pyrrolo[2,3-b]pyridine]
15 | < 1 | CCN(C)S(=O)(=O)Nc1cccc(C(=O)c2c[nH]c3ncc(-c4cnc(NC5CC5)nc4)cc23)c1F [P-0077, 5-[2-(cyclopropylamino)pyrimidin-5-yl]-3-[3-[[ethyl(methyl)sulfamoyl]amino]-2-fluoro-benzoyl]-1H-pyrrolo[2,3-b]pyridine]
16 | < 1 | CCCN(C)S(=O)(=O)Nc1ccc(F)c(C(=O)c2c[nH]c3ncc(-c4cnc(C5CC5)nc4)cc23)c1F [P-0078, 5-(2-cyclopropylpyrimidin-5-yl)-3-[2,6-difluoro-3-[[methyl(propyl)sulfamoyl]amino]benzoyl]-1H-pyrrolo[2,3-b]pyridine]

Row | IC50 [µM] | Structure (SMILES)
17 | < 1 | COCCN(C)S(=O)(=O)Nc1cccc(C(=O)c2c[nH]c3ncc(-c4ccc(C5(C#N)CC5)cc4)cc23)c1F [P-0080, 5-[4-(1-cyanocyclopropyl)phenyl]-3-[2-fluoro-3-[[2-methoxyethyl(methyl)sulfamoyl]amino]benzoyl]-1H-pyrrolo[2,3-b]pyridine]
18 | < 1 | COCCN(C)S(=O)(=O)Nc1cccc(C(=O)c2c[nH]c3ncc(-c4cnc(NC5CC5)nc4)cc23)c1F [P-0081, 5-[2-(cyclopropylamino)pyrimidin-5-yl]-3-[2-fluoro-3-[[2-methoxyethyl(methyl)sulfamoyl]amino]benzoyl]-1H-pyrrolo[2,3-b]pyridine]
19 | < 1 | CN(CC1CC1)S(=O)(=O)Nc1cccc(C(=O)c2c[nH]c3ncc(-c4cnc(C5CC5)nc4)cc23)c1F [P-0084, 3-[3-[[cyclopropylmethyl(methyl)sulfamoyl]amino]-2-fluoro-benzoyl]-5-(2-cyclopropylpyrimidin-5-yl)-1H-pyrrolo[2,3-b]pyridine]
20 | < 1 | COCCN(C)S(=O)(=O)Nc1cccc(C(=O)c2c[nH]c3ncc(-c4cnc(C5CC5)nc4)cc23)c1F [P-0085, 5-(2-cyclopropylpyrimidin-5-yl)-3-[2-fluoro-3-[[2-methoxyethyl(methyl)sulfamoyl]amino]benzoyl]-1H-pyrrolo[2,3-b]pyridine]
21 | < 1 | COc1ncc(-c2cnc3[nH]cc(C(=O)c4cccc(NS(=O)(=O)N5CC(F)(F)C5)c4F)c3c2)cn1 [P-0088, 3,3-difluoro-N-[2-fluoro-3-[5-(2-methoxypyrimidin-5-yl)-1H-pyrrolo[2,3-b]pyridine-3-carbonyl]phenyl]azetidine-1-sulfonamide]
22 | < 1 | CCN(C)S(=O)(=O)Nc1cccc(C(=O)c2c[nH]c3ncnc(N[C@@H](C)C4CC4)c23)c1F [P-0089, 4-[[(1 S)-1-cyclopropylethyl]amino]-5-[3-[[ethyl(methyl)sulfamoyl]amino]-2-fluoro-benzoyl]-7H-pyrrolo[2,3-d]pyrimidine]
23 | < 1 | N#Cc1ccc(-c2cnc3[nH]cc(C(=O)c4cccc(NS(=O)(=O)N5CCCC5)c4F)c3c2)cc1 [P-0090, N-[3-[5-(4-cyanophenyl)-1H-pyrrolo[2,3-b]pyridine-3-carbonyl]-2-fluoro-phenyl]pyrrolidine-1-sulfonamide]
24 | < 1 | Cc1ncc(-c2cnc3[nH]cc(C(=O)c4cccc(NS(=O)(=O)N5CCCC5)c4F)c3c2)cn1 [P-0092, N-[2-fluoro-3-[5-(2-methylpyrimidin-5-yl)-1H-pyrrolo[2,3-b]pyridine-3-carbonyl]phenyl]pyrrolidine-1-sulfonamide]
25 | < 1 | N#Cc1cncc(-c2cnc3[nH]cc(C(=O)c4cccc(NS(=O)(=O)N5CCCC5)c4F)c3c2)c1 [P-0093, N-[3-[5-(5-cyano-3-pyridyl)-1H-pyrrolo[2,3-b]pyridine-3-carbonyl]-2-fluoro-phenyl]pyrrolidine-1-sulfonamide]
26 | < 1 | N#Cc1ccc(-c2cnc3[nH]cc(C(=O)c4cccc(NS(=O)(=O)N5CCCC5)c4F)c3c2)cn1 [P-0094, N-[3-[5-(6-cyano-3-pyridyl)-1H-pyrrolo[2,3-b]pyridine-3-carbonyl]-2-fluoro-phenyl]pyrrolidine-1-sulfonamide]
27 | < 1 | O=C(c1cccc(NS(=O)(=O)N2CCCC2)c1F)c1c[nH]c2ncc(-c3ccc(C(F)(F)F)nc3)cc12 [P-0095, N-[2-fluoro-3-[5-[6-(trifluoromethyl)-3-pyridyl]-1H-pyrrolo[2,3-b]pyridine-3-carbonyl]phenyl]pyrrolidine-1-sulfonamide]
28 | < 1 | Cc1ncc(-c2cnc3[nH]cc(C(=O)c4cccc(NS(=O)(=O)N(C)C)c4F)c3c2)cn1 [P-0097, 3-[3-(dimethylsulfamoylamino)-2-fluoro-benzoyl]-5-(2-methylpyrimidin-5-yl)-1H-pyrrolo[2,3-b]pyridine]
29 | < 1 | CN(C)S(=O)(=O)Nc1cccc(C(=O)c2c[nH]c3ncc(-c4cncc(C#N)c4)cc23)c1F [P-0098, 5-(5-cyano-3-pyridyl)-3-[3-(dimethylsulfamoylamino)-2-fluoro-benzoyl]-1H-pyrrolo[2,3-b]pyridine]
30 | < 1 | CN(C)S(=O)(=O)Nc1cccc(C(=O)c2c[nH]c3ncc(-c4ccc(C#N)nc4)cc23)c1F [P-0099, 5-(6-cyano-3-pyridyl)-3-[3-(dimethylsulfamoylamino)-2-fluoro-benzoyl]-1H-pyrrolo[2,3-b]pyridine]
31 | < 1 | CCN(C)S(=O)(=O)Nc1cccc(C(=O)c2c[nH]c3ncc(-c4cnc(C#N)nc4)cc23)c1F [P-0100, 5-(2-cyanopyrimidin-5-yl)-3-[3-[[ethyl(methyl)sulfamoyl]amino]-2-fluoro-benzoyl]-1H-pyrrolo[2,3-b]pyridine]
